For data set [1], the system named is NSCLC. To be noted: single agent, stage 1V patients; cited from earlier work.
Data set [2] relates to H460a NSCLC xenograft. Description: Tumor growth inhibition in H460a NSCLC xenograft model. Format: in vivo, athymic nude mice. On the procedure:
(§1) Mice were implanted with H460a NSCLC cells. […] Tumor size was measured 3 times per week. Values are means, n=10.
as §1
(§2) H460a cells (provided by Dr Jack Roth, Md., Anderson) were grown in Dulbecco's Modified Eagle Media (DMEM) supplemented with 10% Foetal Bovine Serum (FBS). A549 cells (American Type Culture Collection [Manassas, Va.] were grown in Roswell Park Memorial Institute medium (RPMI) 1640+10% FBS. The cell concentrations for implant were 1×10^7 cells/0.2 mL for H460a and 7.5×10^6 cells/0.2 mL for A549.
(§3) Cells were suspended in phosphate-buffered saline, and implanted subcutaneously in the right flank of each mouse. Once palpable tumours were established, animals were randomised so that all groups had similar starting mean tumour volumes of 100-150 mm^3. Tumour measurements and mouse weights were taken three times per week. Animals were individually monitored throughout the experiment.
(§4) All groups were treated daily for 3 weeks.
(§5) Gemcitabine was given intraperitoneally (i.p.) using a 3 mL syringe and 26-gauge needle. All groups were treated every 3 days for 3 weeks (a total of six injections).
(§6) Weight loss was calculated as percent change in mean group body weight, using the formula: ((W−W0)/W0)×100 • where ‘W’ represents mean body weight of the treated group at a particular day, and ‘W0’ represents mean body weight of the same group at start of treatment. Maximum weight loss was also calculated using the above formula, giving the maximum percentage of body weight lost at any time in the entire experiment for a particular group. Treatment efficacy was assessed by tumor growth inhibition. Tumour volumes of treated groups were given as percentages of tumor volumes of the control groups (% T/C), using the formula: 100×((T−T0)/(C−C0)) • where ‘T’ represents mean tumor volume of a treated group on a specific day during the experiment, ‘T0’ represented mean tumor volume of the same group on the first day of treatment, C represents mean tumor volume of a control group on a particular day of the experiment, and C0 represents mean tumor volume of the same group on the first day of treatment.
(§7) Tumor growth inhibition was calculated using the formula: [127] 100% T/C
(§8) Tumor volume (mm^3) was calculated using the ellipsoid formula: (D×(d^2))/2 • where ‘D’ represents the large diameter of the tumor, and ‘d’ represents the small diameter. In some cases, tumor regression and/or percentage change in tumor volume was calculated using the formula: ((T−T0)/T0)×100 • where ‘T’ represents mean tumor volume of the treated group at a particular day, and ‘T0’ represents mean tumor volume of the same treated group at the start of treatment.

Data set [3] has as its system A549 NSCLC xenograft. Type of data set: in vivo. On the procedure: Mice were implanted with A549 NSCLC cells. […] Tumor size was measured 3 times per week. Values are means, n=10.
as §2, §3, §4, §5, §6, §7, §8

A short description of data set [4]: in vivo. Conditions: for MTD at 14 days: female, mouse, in vivo. On the procedure: FIG. 6: Maximum tolerated dose assessment in non-tumour bearing athymic nude mice treated for 14 days (n=5).
Female, athymic, nu/nu-nuBR nude mice (Charles River Labs, Wilmington, USA) of around 10-12 weeks and weighing 23-25 g were used. The health of the mice was assessed daily by observation and analysis of blood samples taken from sentinel animals on the shared shelf racks. All animals were allowed to acclimatise and recover from shipping-related stress for 1 week.

Data set [5] is described as follows: Necropsy, haematology, clinical chemistry and histology of treated mice. Type of data set: in vivo, athymic nude mice.
Text: At necropsy, skin samples were fixed in 10% buffered formalin, embedded in paraffin, sectioned at 5 μand stained with haematoxylin and eosin.
Five mice per treatment from all remaining groups were given a full necropsy at the end of the study. Whole blood was also collected from these mice for haematology and clinical chemistry.
Data set [6] deals with NSCLC xenograft tumor. Description: Immunohistochemistry of xenograft tumors (Ki-67, TUNEL apoptosis, CD31 microvascular density). Format: in vivo, athymic nude mice. On the procedure:
Sections for immunohistochemistry were cut at 5μ.
To block non-specific tissue-binding sites, sections were blocked by 10% normal serum from the species in which the secondary antibody was raised. Sections were incubated for 20 minutes at room temperature in serum prepared in Ultra-V (Lab Vision).

Data set [7] can be described thus: Chronic-dose plasma and tumor concentrations of erlotinib in tumor-bearing mice. Format: in vivo, nu/nu athymic mice. Conditions: for concentration at 1 h / concentration at 6 h: nu/nu athymic, mouse; for concentration at 1 h: 1 hour post dose; for concentration at 6 h: 6 hours post dose. Here is the method:
On day 28 post tumor implant, blood (from the retro-orbital sinus) and tumor samples were collected at 1 and 6 hours post dosing. […] Values are means±SD, n=3.
(§9) For single-dose pharmacokinetics (PK), blood samples from three mice per time point were collected by cardiac puncture at 5, 15, 30, 60 minutes and 2, 4, 8, 16, 24 hours post-dose. For chronically treated animals, blood samples from two or three mice per time point were collected via the retro-orbital sinus at 1 and 6 hours. Collection tubes contained ethylene diamine tetra-acetic acid (EDTA) as anticoagulant. Samples were stored at −70° C. […] PK parameters were estimated by non-compartmental analysis of the composite data, using the PK evaluation programme WinNonlin PRO® version 3.1 (Pharsight Inc).

A short description of data set [8]: Single-dose pharmacokinetics of erlotinib in non-tumor bearing mice. Type of data set: in vivo, female nu/nu athymic mice. Here is the method: as §9
The doses refer to the hydrochloride salt with an active drug (free base) content of 91.5%. […] Three animals per time point were evaluated for PK data (FIG. 4).

The mark [9] stands for this setting: plasma, oral 6.3-150.0 mg/kg daily, highest value, read-out: Plasma concentration.
[10] abbreviates: H460a tumor, oral 150 mg/kg, read-out: Mean tumor concentration.

The structures appear in SMILES notation. Values joined by “and” are separate entries in the source; they are usually repeats but may differ in a detail not shown here. Equal entries are not always repeated. Where two headings read alike, the source gives them in different places.

As to `CC(=O)O[C@H]1C(=O)[C@@]2(C)[C@H]([C@H](OC(=O)c3ccccc3)[C@]3(O)C[C@H](OC(=O)[C@H](O)[C@@H](NC(=O)c4ccccc4)c4ccccc4)C(C)=C1C3(C)C)[C@]1(OC(C)=O)CO[C@@H]1C[C@@H]2O` [paclitaxel], in data set [1], the Response rate is reported as 21% to 24%.
With `Nc1ccn([C@@H]2O[C@H](CO)[C@@H](O)C2(F)F)c(=O)n1` [gemcitabine], the Tumor growth inhibition in data set [2] (combination study, gemcitabine 30 mg/kg i.p. every 3 days alone) turned out to be 64%; in data set [2] (combination study, gemcitabine 120 mg/kg i.p. every 3 days alone), 93%; in data set [3] (gemcitabine 30 mg/kg alone, day 47), 42%; in data set [3] (gemcitabine 120 mg/kg alone, day 47), 75%. Moreover, in data set [3] (gemcitabine 120 mg/kg alone), the “Extent of partial regression” value is reported as 5%. In data set [3] (gemcitabine 120 mg/kg alone), the “Number of partial regressions” value is listed as “one”. Further, the MTD at 14 days in data set [4] (every 3 days) amounted to 120 mg/kg.
For `C#Cc1cccc(Nc2ncnc3cc(OCCOC)c(OCCOC)cc23)c1` [erlotinib, [6,7-bis(2-methoxyethoxy)-4-quinazolin-4-yl]-(3-ethynylphenyl) amine], the Skin lesion histology entry in data set [5] (erlotinib 100 mg/kg/day for 21 days) was “diffuse, mild to moderate epidermal acanthosis, epidermal hyperkeratosis, focal escharosis, and infiltration of mostly acute inflammatory cells in the dermis”. Besides, the “Changes in haematology or clinical chemistry parameters” value in data set [5] (erlotinib monotherapy) is “no changes”. Moreover, the “Treatment-related macroscopic changes in the skin” value in data set [5] (erlotinib monotherapy) was “substantial reddening and crusting of the skin of the muzzle”. Moreover, the Tumor growth inhibition in data set [2] (dose response study, 6.25 mg/kg oral daily, day 28) is reported as 28%; in data set [2] (dose response study, 12.5 mg/kg oral daily, day 28) it was 36%; in data set [2] (dose response study, 25 mg/kg oral daily, day 28), 46%; in data set [2] (dose response study, 100 mg/kg oral daily, day 28 post tumor implantation), 61%; in data set [3] (erlotinib 25 mg/kg alone, day 47), 48%; in data set [3] (erlotinib 100 mg/kg alone, day 47 post tumor implantation (treatment day 19)), 87%. Further, the Tumor regressions entry in data set [2] (dose response study, all dose groups) is listed as “no partial or complete regressions”. The “Extent of partial regression” value in data set [3] (erlotinib 100 mg/kg alone) is 16% and 7%. In addition, the “Number of partial regressions” value in data set [3] (erlotinib 100 mg/kg alone) is recorded as “two”. In addition, the Ki-67 proliferative index result in data set [6] (erlotinib 100 mg/kg, both NSCLC xenograft tumor models) was “mild decrease”. Also, the “Angiogenesis as microvascular density (MVD), CD31 staining” value in data set [6] (erlotinib monotherapy) is reported as “no clear effect”. The “Frequency of apoptosis in tumor cells” value in data set [6] (erlotinib monotherapy, treated xenografts) is reported as “no significant difference”. Besides, the “Dose proportionality of exposure” value in data set [7] (ascending oral doses 6.3-150.0 mg/kg, tumor-bearing mice) was “more than dose-proportional”. The values for the concentration at 1 h in data set [7] (setting [9]) and in data set [7] (setting [10]) were no more than 16700 ng/mL and 4800 ng/g, respectively. Besides, the concentration at 6 h in data set [7] (setting [9]) is no more than 8870 ng/mL; in data set [7] (setting [10]), 3090 ng/g. Further, in data set [8] (20 vs 100 mg/kg single dose), the “Dose proportionality of exposure (AUC)” value is “dose-proportional”. Also, the MRT in data set [8] (female, nu/nu athymic, mouse, plasma, po, single 20 and 100 mg/kg by gavage, read-out: Average mean residence time) is roughly 7 h. Besides, the half-life (in general, the time in which the quantity being followed falls by half) in data set [8] (female, nu/nu athymic, mouse, plasma, po, single 20 and 100 mg/kg by gavage, read-out: Mean apparent terminal half-life (converted)) is roughly 4 h. Moreover, the AUC(0-t) (usually exposure summed from dosing to a finite time, without extrapolation to infinity) in data set [8] (female, nu/nu athymic, mouse, po, single 20 mg/kg by gavage, plasma) is 33.5 µg·h/mL; in data set [8] (female, nu/nu athymic, mouse, po, single 100 mg/kg by gavage, plasma) it was roughly 196 µg·h/mL. For the same compound, the “Mean maximum plasma concentration” value in data set [8] (single 20 mg/kg by gavage) is listed as ~9,100 ng/mL; in data set [8] (single 100 mg/kg by gavage), “approximately 24,000 ng/mL”. Besides, in data set [8] (single 20 and 100 mg/kg by gavage), the “Time of maximum plasma concentration” value is on record as 0.5-1.0 hours post dose. Besides, the Tolerability entry in data set [4] (150 mg/kg for 3 weeks, previous efficacy studies (unpublished)) is “well tolerated”. The values for the Toxicity outcome in data set [4] (200 mg/kg group) and in data set [4] (400 mg/kg group) were “marked weight loss” and “One mouse in the 400 mg/kg group died”, respectively. In data set [4] (oral daily, 14 days), the MTD at 14 days amounted to 100 mg/kg.
